In brackets after ≈: the same amount, converted by molar mass.
Experiments:
Assay type in all cases: cell-based
Aspergillus niger = test: in vitro serial dilution test for antimycotic action (microtitration technique), mold; details: read-out: Minimum inhibitory concentration for Aspergillus niger
Description: (§1) The in vitro tests for an antimycotic action are carried out in serial dilution tests on yeasts (Candida albicans) and molds (Aspergillus niger) [Material and Methods: Microtitration technique published in Mykosen 27, 14 (1984)].

[1] = tested on: yeasts (Candida albicans) and molds (Aspergillus niger); test: in vitro tests for an antimycotic action in serial dilution, overall result in words; details: compared with reference substance niphimycin
Description: as §1

Candida albicans = test: in vitro serial dilution test for antimycotic action (microtitration technique), yeast; details: read-out: Minimum inhibitory concentration for Candida albicans
Description: as §1

Row | SMILES | MIC (Aspergillus niger) [µg/mL] | antimycotic properties [1] | MIC (Candida albicans) [µg/mL]
1 | CNC(=N)NCCCC=CCCCC(C)CC(C)C1OC(=O)C(C)C(O)C=CC(C)C(O)CC(O)C(C)C(O)CCC(C)C(O)CC2(O)OC(CC(O)CC(O)CC(O)C(C)C(O)C=CC=CC1C)CC(O)C2O (centres unmarked) [Demalonyl compound] | 1.95 (≈ 1.85 µM) | good antimycotic properties which are superior to those of the reference substance niphimycin | 3.9 (≈ 3.69 µM)
2 | CNC(=N)NCCCC=CCCCC(C)CC(C)C1OC(=O)C(C)C(O)C=CC(C)C(O)CC(O)C(C)C(O)CCC(C)C(O)CC2(O)OC(CC(OC(=O)CC(=O)O)CC(O)CC(O)C(C)C(O)C=CC=CC1C)CC(O)C2O (centres unmarked) [Niphimycin, reference compound] | 3.9 (≈ 3.41 µM) |  | 7.8 (≈ 6.83 µM)

Source: patent US4873347A, “Process for the preparation of the demalonyl compound of macrolide lactones” (Hoechst Aktiengesellschaft, priority 1986, dated 1989)
